The values that follow come from patent publication US6037357A, “N-benzoyl-α-alkylated azatyrosines as anticancer agents” (Unitech Pharmaceuticals, Inc., priority 1999, dated 2000).

Data set [1] relates to breast cancer cell (BC-M1). The experiment in a line: Cytotoxic assay by colorimetric MTT assay (growth inhibition), breast cancer. To be noted: for IC50: Homo sapiens, 72 h, BC-M1, 10000 cells per well, 3 days incubation, mean of 4 experiments. It is filed as cell-based, human. Here is the method:
(§1) The in-vitro studies for evaluating these α-alkylatedderivatives of azatyrosine were performed and the general procedures are listed as follow:
(§2) Human stomach cancer cell line (SC-M1), and human breast cancer cell line (BC-M1) sampled from inpatients at Tri-service General Hospital in Taipei (Taiwan) were cultured and used in the experiments. All cells from primary culture and subculture were grown in 10% RPMI 1640 supplemented with 100 U/mL penicillin G, 100 μg/mL amphotericin B, and 10% fetal calf serum (FCS) in a 5% CO2 incubator at 37° C.
(§3) The cytotoxicity of these compounds against cultured cancer cells was determined by utilizing in-vitro MTT assay. L-azatyrosine and its α-alkylated derivatives were dissolved in milli-Q water at a concentration of 1 mg/mL and diluted with 10% FCS-RPMI to various concentrations, respectively. Single cell suspension (100 μL) and each compounds (100 μL) were added to 96-well flat-bottom microplate. 10% FCS-RPMI (100 μL) was used as a control group. After 3 days incubation at 37° C. in a 5% CO2 incubator, stock MTT (10 μL of 5 mg/mL for each 100 μL solution in well) solution was added to all wells. After additional 2 h incubation in a 5% CO2 incubator, The mixture was centrifuged (1000 rpm for 5 min) and the supernatant was carefully pipetted out. The residue was mixed well with DMSO (100 μL). The optical density of plates was recorded on a MRX Spectrophotometer (Dynatech, Guernsey, UK) at a wavelength of 550 nm.
(§4) Fractional inhibition was calculated as [1-(optical density of sample/optical density of control)]. The IC50 values for each compound were determined as a parameter for cytotoxicity, which is the concentration of a test compound exerting 50% survival of cancer cells, compared to untreated controls. Each value is the mean of four experiments. A specific example of the in-vitro study is shown Example 8.
(§5) A series of α-alkylated derivatives of L-azatyrosine were studied for their in-vitro effects according to the above procedures. The growth inhibition of L-azatyrosine and its derivatives on human cancer cell lines (BC-M1 and SC-M1) has been shown on Table 1.

Data set [2] has as its system stomach cancer cell (SC-M1). The experiment in a line: Cytotoxic assay by colorimetric MTT assay (growth inhibition), stomach cancer. It is filed as cell-based, human. To be noted: for IC50: Homo sapiens, 72 h, SC-M1, 10000 cells per well, 3 days incubation, mean of 4 experiments. On the procedure:
as §1, §2, §3, §4, §5

For data set [3], the system named is activated c-Ha-ras-transformed NIH3T3 cells. To be noted: cited from earlier work.
Data set [4] deals with cells possessing normal ras gene. Particulars: cited from earlier work.
For data set [5], the system named is 7,12-dimethylbenz[a]anthracene or methylnitrosourea-induced carcinogenesis in mice. Particulars: mice harboring a normal c-Ha-ras gene; cited from earlier work.
The subject of data set [6] is pappilomas induced by a chemical carcinogen. Particulars: 2 mg/mouse once every two days for 12 days; cited from earlier work.
Data set [7] relates to TSU-Prl. To be noted: incubation for 7 days; cited from earlier work.
Data set [8] has as its system DU-145. Particulars: incubation for 7 days; cited from earlier work.
The test system of data set [9] is PC-3. To be noted: incubation for 7 days; cited from earlier work.
In data set [10] the test system is human prostate cancer cells. Particulars: cited from earlier work.
In data set [11] the test system is anticancer activity. To be noted: cited from earlier work.
For data set [12], the system named is prostate tumorigenic growth. To be noted: cited from earlier work.

“Also recorded” adds a separate entry of the source.

In the case of `CC(C)CC(Cc1ccc(O)cn1)(NC(=O)c1ccccc1)C(=O)N[C@@H](C)c1ccccc1` (mixture of isomers) [Compound 10b, N-Benzoyl-α-isobutyl-DL-azatyrosyl-(S)-1-phenylethylamide], in [1], the “cytotoxicity / growth inhibition compared with L-azatyrosine (in words), BC-M1” value was “higher growth inhibition than that of L-azatyrosine” and the IC50 was determined as 300 µM. In addition, in [2], the IC50 stood at 300 µM and the “cytotoxicity / growth inhibition compared with L-azatyrosine (in words), SC-M1” value is on record as “higher growth inhibition than that of L-azatyrosine”.
In the case of `C[C@H](NC(=O)C(Cc1ccccc1)(Cc1ccc(O)cn1)NC(=O)c1ccccc1)c1ccccc1` (mixture of isomers) [Compound 10c, N-Benzoyl-α-benzyl-DL-azatyrosyl-(S)-1-phenylethylamide], in data set [1], the “cytotoxicity / growth inhibition compared with L-azatyrosine (in words), BC-M1” value is listed as “higher growth inhibition than that of L-azatyrosine” and the IC50 came out at 600 µM. Moreover, in [2], the midpoint of inhibition, the IC50, lay at 80 µM and the “cytotoxicity / growth inhibition compared with L-azatyrosine (in words), SC-M1” value is given as “higher growth inhibition than that of L-azatyrosine; also recorded: excellent cytotoxicity on SC-M1 compared with L-azatyrosine”.
With `CC(Cc1ccc(O)cn1)(NC(=O)c1ccccc1)C(=O)O` (racemic) [Compound 8a, N-Benzoyl-α-methyl-DL-azatyrosine], the IC50 in data set [1] came out at 1300 µM; in data set [2] it was 800 µM.
For `CC(C)CC(Cc1ccc(O)cn1)(NC(=O)c1ccccc1)C(=O)O` (racemic) [Compound 8b, N-Benzoyl-α-isobutyl-DL-azatyrosine], the IC50 in data set [1] worked out at 1000 µM; in data set [2], 1200 µM.
The corresponding values for `O=C(NC(Cc1ccccc1)(Cc1ccc(O)cn1)C(=O)O)c1ccccc1` (racemic) [Compound 8c, N-benzoyl-α-benzyl-DL-azatyrosine] are 600 µM and 600 µM.
For `CCOC(=O)C(Cc1ccc(O)cn1)(CC(C)C)NC(=O)c1ccccc1` (racemic) [Compound 9b, Ethyl N-benzoyl-α-isobutyl-DL-azatyrosinate], in that order: 700 µM and 600 µM.
The corresponding values for `CCOC(=O)C(Cc1ccccc1)(Cc1ccc(O)cn1)NC(=O)c1ccccc1` (racemic) [Compound 9c, Ethyl N-benzoyl-α-benzyl-DL-azatyrosinate] are 900 µM and 1000 µM.
In the case of `N[C@@H](Cc1ccc(O)cn1)C(=O)O` [L-Azatyrosine, L-azatyrosine], the IC50 in data set [1] came out at 2200 µM; in data set [2], 1600 µM. Besides, in data set [3], the “reversion of activated c-Ha-ras-transformed NIH3T3 cells to the apparently normal phenotype” value is on record as “induces permanent reversion”. Besides, in data set [4], the “effect on the growth of cells possessing normal ras gene” value was “without significantly affecting the growth”. The “inhibition of 7,12-dimethylbenz[a]anthracene or methylnitrosourea-induced carcinogenesis” value in [5] is “inhibits”. Moreover, the “block of pappilomas induced by a chemical carcinogen” value in data set [6] is reported as “can block pappilomas”. For the same molecule, the “in-vitro growth inhibition, TSU-Prl” value in data set [7] is given as “greater than 95%”. Also, in data set [8], the “in-vitro growth inhibition, DU-145” value is reported as “greater than 95%”. Besides, the “in-vitro growth inhibition, PC-3” value in [9] was “greater than 95%”. In data set [10], the “reversion efficiency on human prostate cancer cells” value is “high reversion efficiency”. For the same molecule, in data set [11], the “concentrations required for the anticancer activity” value is 1 to 2 mM. For the same molecule, in [12], the “inhibition of prostate tumorigenic growth” value was “inhibit prostate tumorigenic growth”.
